Results reported in ChEMBL document CHEMBL1157256, “Junceellolides J-L, 11,20-epoxybriaranes from the gorgonian coral Junceella fragilis” (2006).

Legend:
[1] = Antioxidant activity in human neutrophils assessed as inhibition of superoxide generation at 10 ug/mL by colorimetric method relative to control; format: functional; settings: Neutrophil
[2] = system: Neutrophil; test: Inhibition of FMLP/cytochalasin B-stimulated elastase release in human neutrophils at 10 ug/mL relative to control; format: functional

Work on `CC(=O)O[C@H]1CC/C(C)=C\[C@@H]2OC(=O)[C@H](C)[C@@]2(O)[C@@H](OC(C)=O)[C@H]2[C@@]3(CC[C@H](OC(C)=O)[C@]12C)CO3` yielded an inhibition at 10 µg/mL [1] of 22.6% and an inhibition at 10 µg/mL [2] of 15.4%.

For `CC(=O)O[C@H]1CC[C@@]2(CO2)[C@@H]2[C@H](OC(C)=O)[C@]3(O)[C@@H](C)C(=O)O[C@H]3[C@@H]3O[C@]3(C)CC[C@H](OC(C)=O)[C@@]12C` [JUNCEELLOLIDE J], the inhibition at 10 µg/mL [1] was 7.66% and the inhibition at 10 µg/mL [2] was 5.17%.

`CC(=O)O[C@H]1CC/C(C)=C\[C@@H]2OC(=O)[C@H](C)[C@@]2(O)[C@@H](OC(C)=O)[C@H]2[C@]3(CC[C@H](OC(C)=O)[C@]12C)CO3` [JUNCEELLOLIDE K] showed an inhibition at 10 µg/mL [1] of 13.9% and an inhibition at 10 µg/mL [2] of 15%.

With `CC(=O)O[C@H]1CC[C@]2(CO2)[C@@H]2[C@H](OC(C)=O)[C@]3(O)[C@@H](C)C(=O)O[C@H]3[C@@H](O)[C@](C)(O)CC[C@H](OC(C)=O)[C@@]12C` [JUNCEELLOLIDE L] the inhibition at 10 µg/mL [1] was 5.55% and the inhibition at 10 µg/mL [2] was 5.52%.
